Experimental data reported in ChEMBL document CHEMBL1201862, “PubChem BioAssay data set” (2004).
The source made the active and inactive calls.

What was measured:
[1] = target: T1, Intestinal-type alkaline phosphatase (Homo sapiens, UniProt P09923); test: activation of human intestinal alkaline phosphatase – biochemical, luminescent, uHTS hits, set 2, dose response (AID 488817); type: functional;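 note: potency of activators that raise enzyme activity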
[2] = target: T1, Intestinal-type alkaline phosphatase; test: human intestinal alkaline phosphatase activators, dose response, biochemical, luminescence, uHTS hits (AID 463120); type: functional
[3] = target: T2, High affinity choline transporter 1 (Homo sapiens, UniProt Q9GZV3); test: human choline transporter blockers, potency – cell-based, 5-point CRC, membrane potential dye, dose response (AID 504840); type: functional
T2 sequence (Q9GZV3 whole entry): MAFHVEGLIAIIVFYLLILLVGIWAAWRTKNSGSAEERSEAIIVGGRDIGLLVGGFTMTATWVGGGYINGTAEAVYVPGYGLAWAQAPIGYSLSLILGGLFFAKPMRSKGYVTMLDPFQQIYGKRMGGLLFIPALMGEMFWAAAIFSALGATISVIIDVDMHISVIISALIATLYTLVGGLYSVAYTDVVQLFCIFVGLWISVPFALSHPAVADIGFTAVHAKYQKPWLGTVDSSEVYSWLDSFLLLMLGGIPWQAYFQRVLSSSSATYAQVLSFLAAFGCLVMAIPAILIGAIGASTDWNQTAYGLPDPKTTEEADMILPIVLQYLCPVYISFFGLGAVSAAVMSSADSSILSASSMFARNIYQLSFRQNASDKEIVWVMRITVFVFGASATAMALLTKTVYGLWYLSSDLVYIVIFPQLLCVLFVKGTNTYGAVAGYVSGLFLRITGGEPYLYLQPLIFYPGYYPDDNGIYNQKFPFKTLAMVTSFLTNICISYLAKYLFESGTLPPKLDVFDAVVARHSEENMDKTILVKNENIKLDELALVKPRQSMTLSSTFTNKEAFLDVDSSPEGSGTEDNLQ

Protein RecA = target: T3, Protein RecA (Mycobacterium tuberculosis, UniProt P9WHJ3); test: Fluorescence Cell-Free Homogeneous Dose Retest to Identify Inhibitors of RecA-Intein Splicing Activity. [Related pubchem assays (depositor defined):AID2097, AID2223, AID489010, AID492950]; type: functional
T3 sequence (P9WHJ3 whole entry): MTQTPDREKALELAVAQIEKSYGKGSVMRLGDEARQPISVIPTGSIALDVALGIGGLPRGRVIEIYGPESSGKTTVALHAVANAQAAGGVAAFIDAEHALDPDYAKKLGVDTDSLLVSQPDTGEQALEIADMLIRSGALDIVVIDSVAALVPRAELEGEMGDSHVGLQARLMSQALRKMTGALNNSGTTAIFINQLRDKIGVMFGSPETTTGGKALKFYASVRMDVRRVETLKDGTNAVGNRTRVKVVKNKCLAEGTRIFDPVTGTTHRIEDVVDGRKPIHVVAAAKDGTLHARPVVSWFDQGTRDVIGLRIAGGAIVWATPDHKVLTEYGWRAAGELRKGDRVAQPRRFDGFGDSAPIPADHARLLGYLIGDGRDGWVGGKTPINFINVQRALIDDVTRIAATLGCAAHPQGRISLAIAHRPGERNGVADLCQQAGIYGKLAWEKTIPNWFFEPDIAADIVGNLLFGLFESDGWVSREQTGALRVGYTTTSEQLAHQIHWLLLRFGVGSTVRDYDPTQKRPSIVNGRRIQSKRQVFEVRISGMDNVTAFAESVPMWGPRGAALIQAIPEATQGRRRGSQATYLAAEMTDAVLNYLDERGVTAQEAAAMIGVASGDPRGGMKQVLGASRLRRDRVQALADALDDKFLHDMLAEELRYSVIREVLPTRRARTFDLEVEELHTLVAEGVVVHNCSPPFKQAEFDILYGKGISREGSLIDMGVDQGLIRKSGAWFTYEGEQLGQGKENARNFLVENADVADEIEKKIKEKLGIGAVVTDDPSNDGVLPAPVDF

[4] = target: Intestinal-type alkaline phosphatase (Mus musculus, UniProt P24822); test: PubChem AID 488875; type: functional
Chain of Intestinal-type alkaline phosphatase (Mus musculus, UniProt P24822) (P24822 whole entry): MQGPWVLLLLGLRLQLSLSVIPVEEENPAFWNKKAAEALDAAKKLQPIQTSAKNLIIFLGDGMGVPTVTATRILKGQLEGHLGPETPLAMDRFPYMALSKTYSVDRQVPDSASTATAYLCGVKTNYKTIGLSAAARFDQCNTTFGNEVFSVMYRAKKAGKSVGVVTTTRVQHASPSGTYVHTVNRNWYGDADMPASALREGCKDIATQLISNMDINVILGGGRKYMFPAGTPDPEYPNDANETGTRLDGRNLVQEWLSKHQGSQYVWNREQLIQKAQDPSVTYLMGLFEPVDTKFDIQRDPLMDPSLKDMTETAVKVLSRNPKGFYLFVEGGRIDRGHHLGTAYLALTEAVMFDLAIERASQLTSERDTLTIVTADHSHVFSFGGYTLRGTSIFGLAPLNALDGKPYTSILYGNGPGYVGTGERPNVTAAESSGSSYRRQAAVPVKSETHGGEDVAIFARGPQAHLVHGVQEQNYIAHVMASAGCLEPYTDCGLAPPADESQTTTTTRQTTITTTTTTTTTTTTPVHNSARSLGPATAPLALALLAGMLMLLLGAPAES

[5] = target: T4, Alkaline phosphatase, tissue-nonspecific isozyme (Homo sapiens, UniProt P05186); test: activation of tissue-nonspecific alkaline phosphatase – biochemical, TNAP isozyme, human IAP uHTS hits, selectivity assay for human IAP activator project, dose response (AID 488886); type: functional;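 note: potency of compounds raising TNAP activity as a selectivity check on IAP activators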
T4 sequence (P05186 whole entry): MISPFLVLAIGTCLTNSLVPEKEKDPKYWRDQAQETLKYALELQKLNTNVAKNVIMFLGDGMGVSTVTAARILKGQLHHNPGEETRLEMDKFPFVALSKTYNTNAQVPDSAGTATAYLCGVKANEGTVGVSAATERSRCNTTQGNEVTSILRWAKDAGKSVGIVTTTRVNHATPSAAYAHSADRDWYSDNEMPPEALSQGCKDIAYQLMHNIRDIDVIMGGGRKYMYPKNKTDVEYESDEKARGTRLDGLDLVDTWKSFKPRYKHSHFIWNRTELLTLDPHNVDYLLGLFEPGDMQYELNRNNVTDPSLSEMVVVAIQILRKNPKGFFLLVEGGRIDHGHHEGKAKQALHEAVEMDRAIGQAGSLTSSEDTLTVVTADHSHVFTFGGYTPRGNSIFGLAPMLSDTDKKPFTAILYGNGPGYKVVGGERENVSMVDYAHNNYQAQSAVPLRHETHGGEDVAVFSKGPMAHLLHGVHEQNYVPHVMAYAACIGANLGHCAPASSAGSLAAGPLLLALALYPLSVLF

[6] = target: T5, Replicative DNA helicase DnaB (Mycobacterium tuberculosis, UniProt P9WMR3); test: DnaB intein splicing inhibitors, dose response, biochemical, cell-free fluorescence (AID 449749); type: functional
T5 sequence (P9WMR3 whole entry): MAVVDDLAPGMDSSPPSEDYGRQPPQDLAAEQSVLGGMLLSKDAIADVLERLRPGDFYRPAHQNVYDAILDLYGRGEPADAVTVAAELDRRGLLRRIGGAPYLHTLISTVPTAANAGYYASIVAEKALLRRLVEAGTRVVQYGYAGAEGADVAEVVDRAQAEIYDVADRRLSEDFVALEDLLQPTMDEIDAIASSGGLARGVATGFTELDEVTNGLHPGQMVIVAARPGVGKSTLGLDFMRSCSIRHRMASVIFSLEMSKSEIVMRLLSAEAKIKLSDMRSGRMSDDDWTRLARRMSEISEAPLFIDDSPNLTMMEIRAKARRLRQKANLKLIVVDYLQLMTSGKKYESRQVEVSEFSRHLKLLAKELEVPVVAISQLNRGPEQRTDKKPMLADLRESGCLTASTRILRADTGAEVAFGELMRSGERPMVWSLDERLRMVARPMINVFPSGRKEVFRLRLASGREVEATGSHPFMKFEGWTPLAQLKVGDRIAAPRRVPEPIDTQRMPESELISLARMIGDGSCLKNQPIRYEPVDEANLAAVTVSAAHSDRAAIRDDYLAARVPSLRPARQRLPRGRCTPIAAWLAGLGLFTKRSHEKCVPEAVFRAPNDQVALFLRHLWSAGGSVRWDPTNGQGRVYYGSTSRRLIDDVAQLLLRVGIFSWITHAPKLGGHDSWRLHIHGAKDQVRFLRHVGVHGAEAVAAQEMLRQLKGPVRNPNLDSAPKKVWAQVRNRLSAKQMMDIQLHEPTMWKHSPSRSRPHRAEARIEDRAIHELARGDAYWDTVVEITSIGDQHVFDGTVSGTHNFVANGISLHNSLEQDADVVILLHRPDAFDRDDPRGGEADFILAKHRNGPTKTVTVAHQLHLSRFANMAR

[7] = Luminescence Cell-Based Dose Retest to Confirm Inhibitors of Cancer Stem Cells. [Related pubchem assays (depositor defined):AID2717, AID2721]; type: functional; details: Homo sapiens
[8] = target: Peroxisome proliferator-activated receptor gamma/Nuclear receptor corepressor 2 (Homo sapiens, UniProt P37231+Q9Y618); type: functional
[9] = reduced cellular PGC1a acetyl-lysine signal – cell-based, cherry-picked samples, dose response (AID 720514); type: functional;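 note: potency may reflect raised or lowered acetylation signal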
[10] = Trypanosoma cruzi growth suppression in host cells – NIH3T3 host cells, beta-gal luminescence, confirmation (AID 2044); type: functional, cell-based;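 note: intracellular parasites grown in NIH/3T3 mouse fibroblasts as host cells; luminescent beta-galactosidase reporter signal from transgenic T. cruzi replicating inside host cells; inhibitors lower the luminescence signal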
[11] = target: T6, Tyrosine-protein phosphatase non-receptor type 7 (Homo sapiens, UniProt P35236); type: functional
T6 sequence (P35236 whole entry): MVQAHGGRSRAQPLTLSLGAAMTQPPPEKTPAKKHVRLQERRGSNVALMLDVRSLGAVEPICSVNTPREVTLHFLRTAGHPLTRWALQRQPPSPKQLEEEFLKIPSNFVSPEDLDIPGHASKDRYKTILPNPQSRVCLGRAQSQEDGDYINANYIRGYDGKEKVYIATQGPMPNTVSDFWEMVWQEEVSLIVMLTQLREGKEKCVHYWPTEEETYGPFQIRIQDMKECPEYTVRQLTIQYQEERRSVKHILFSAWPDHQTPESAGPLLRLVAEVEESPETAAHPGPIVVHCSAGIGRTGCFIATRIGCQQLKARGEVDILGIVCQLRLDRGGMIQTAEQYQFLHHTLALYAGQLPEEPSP

[12] = Intein inhibitors as potential Tuberculosis drugs, a cytotoxicity screen. [Related pubchem assays (depositor defined):AID2221, AID2223, AID434968, AID435010, AID449749, AID449750, AID489010]; type: functional
[13] = HPDE-C7 pancreatic duct cell viability loss – fluorescence, HTS (AID 430); type: functional, cell-based; details: Homo sapiens
[14] = target: Lysine-specific demethylase 4A (Homo sapiens, UniProt O75164); test: inhibition of JMJD2A H3K9me3 demethylation – biochemical, DELFIA europium, cherry-picked samples, selectivity assay for GASC-1 inhibitor project, dose response (AID 488840)
Chain of Lysine-specific demethylase 4A (O75164 whole entry): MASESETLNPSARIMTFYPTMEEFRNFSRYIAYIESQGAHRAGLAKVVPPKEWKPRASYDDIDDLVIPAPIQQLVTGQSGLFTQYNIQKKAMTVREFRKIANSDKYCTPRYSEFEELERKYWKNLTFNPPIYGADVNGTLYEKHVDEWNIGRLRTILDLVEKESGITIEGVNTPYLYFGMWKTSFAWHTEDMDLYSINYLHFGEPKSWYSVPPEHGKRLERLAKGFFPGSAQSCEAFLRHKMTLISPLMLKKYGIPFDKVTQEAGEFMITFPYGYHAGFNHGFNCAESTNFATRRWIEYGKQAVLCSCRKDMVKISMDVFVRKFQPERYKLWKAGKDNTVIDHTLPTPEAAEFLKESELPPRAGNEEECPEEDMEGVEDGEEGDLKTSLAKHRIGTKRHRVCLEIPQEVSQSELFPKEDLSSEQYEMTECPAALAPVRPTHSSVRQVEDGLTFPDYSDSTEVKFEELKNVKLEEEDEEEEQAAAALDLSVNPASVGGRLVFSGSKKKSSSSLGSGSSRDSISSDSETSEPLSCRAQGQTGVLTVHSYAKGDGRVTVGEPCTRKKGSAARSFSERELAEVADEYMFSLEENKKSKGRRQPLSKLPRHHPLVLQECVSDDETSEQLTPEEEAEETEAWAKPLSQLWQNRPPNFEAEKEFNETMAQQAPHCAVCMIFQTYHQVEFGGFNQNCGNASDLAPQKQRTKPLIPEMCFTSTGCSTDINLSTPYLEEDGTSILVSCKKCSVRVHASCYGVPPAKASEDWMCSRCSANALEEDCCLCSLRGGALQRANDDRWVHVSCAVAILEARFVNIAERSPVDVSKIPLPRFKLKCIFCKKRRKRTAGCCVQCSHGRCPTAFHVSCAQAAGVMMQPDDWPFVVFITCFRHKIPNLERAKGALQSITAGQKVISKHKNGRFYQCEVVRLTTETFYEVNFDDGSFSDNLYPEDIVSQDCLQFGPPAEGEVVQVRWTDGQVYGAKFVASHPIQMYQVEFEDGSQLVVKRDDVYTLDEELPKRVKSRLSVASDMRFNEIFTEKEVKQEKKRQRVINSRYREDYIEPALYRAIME

[15] = target: T7, Dual specificity protein phosphatase 3 (Homo sapiens, UniProt P51452); test: VHR1 phosphatase inhibitors, biochemical (AID 1878)
T7 sequence (P51452 whole entry): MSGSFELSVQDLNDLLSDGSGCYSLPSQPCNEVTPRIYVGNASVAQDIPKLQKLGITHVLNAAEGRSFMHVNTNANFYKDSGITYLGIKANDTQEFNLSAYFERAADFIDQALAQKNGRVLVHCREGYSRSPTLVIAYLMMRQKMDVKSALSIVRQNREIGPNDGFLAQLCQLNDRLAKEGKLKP

[16] = microbe, parasite or virus in culture; type: functional; details: Mycobacterium tuberculosis
[17] = target: Photoreceptor-specific nuclear receptor (Homo sapiens, UniProt Q9Y5X4); type: functional;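 note: potency for compounds that break the NR2E3 corepressor complex and count as activators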
Chain of Photoreceptor-specific nuclear receptor (Q9Y5X4 whole entry): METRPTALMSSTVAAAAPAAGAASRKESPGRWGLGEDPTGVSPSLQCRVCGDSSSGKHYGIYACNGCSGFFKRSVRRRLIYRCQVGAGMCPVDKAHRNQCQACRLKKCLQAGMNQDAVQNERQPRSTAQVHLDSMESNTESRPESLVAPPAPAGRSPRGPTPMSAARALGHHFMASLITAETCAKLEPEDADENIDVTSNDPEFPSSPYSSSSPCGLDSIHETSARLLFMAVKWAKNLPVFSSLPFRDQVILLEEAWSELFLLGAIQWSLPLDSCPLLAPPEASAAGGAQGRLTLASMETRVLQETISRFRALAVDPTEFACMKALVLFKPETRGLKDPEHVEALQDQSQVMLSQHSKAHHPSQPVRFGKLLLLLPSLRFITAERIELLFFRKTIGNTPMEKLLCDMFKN

[18] = NIH3T3 cell viability loss – ATP luminescence, mouse fibroblasts, counter-screen, dose response (AID 2010); type: functional, cell-based;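 note: cells exposed to compound for about 90 hours before reading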
[19] = target: T8, Dual specificity protein phosphatase 6 (Rattus norvegicus, UniProt Q64346); test: inhibition of rat DUSP6 enzyme activity – biochemical, in vitro, primary screen (AID 425)
T8 sequence (Q64346 whole entry): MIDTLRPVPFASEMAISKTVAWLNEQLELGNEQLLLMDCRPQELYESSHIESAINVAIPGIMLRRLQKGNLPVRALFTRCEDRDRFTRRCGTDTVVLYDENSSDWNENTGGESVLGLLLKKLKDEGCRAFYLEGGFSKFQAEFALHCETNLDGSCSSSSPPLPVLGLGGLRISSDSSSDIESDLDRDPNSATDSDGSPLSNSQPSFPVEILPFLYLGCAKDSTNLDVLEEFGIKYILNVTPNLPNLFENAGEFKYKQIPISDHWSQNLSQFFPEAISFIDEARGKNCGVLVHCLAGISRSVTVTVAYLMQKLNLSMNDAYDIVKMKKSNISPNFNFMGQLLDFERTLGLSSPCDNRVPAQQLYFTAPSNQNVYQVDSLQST

[20] = target: DNA repair and recombination protein RAD54-like (Homo sapiens, UniProt Q92698); test: RAD54 Holliday junction migration blockers – biochemical, fluorescence, cherry-picked samples, dose series, confirmation (AID 651657); type: functional
Chain of DNA repair and recombination protein RAD54-like (Q92698 whole entry): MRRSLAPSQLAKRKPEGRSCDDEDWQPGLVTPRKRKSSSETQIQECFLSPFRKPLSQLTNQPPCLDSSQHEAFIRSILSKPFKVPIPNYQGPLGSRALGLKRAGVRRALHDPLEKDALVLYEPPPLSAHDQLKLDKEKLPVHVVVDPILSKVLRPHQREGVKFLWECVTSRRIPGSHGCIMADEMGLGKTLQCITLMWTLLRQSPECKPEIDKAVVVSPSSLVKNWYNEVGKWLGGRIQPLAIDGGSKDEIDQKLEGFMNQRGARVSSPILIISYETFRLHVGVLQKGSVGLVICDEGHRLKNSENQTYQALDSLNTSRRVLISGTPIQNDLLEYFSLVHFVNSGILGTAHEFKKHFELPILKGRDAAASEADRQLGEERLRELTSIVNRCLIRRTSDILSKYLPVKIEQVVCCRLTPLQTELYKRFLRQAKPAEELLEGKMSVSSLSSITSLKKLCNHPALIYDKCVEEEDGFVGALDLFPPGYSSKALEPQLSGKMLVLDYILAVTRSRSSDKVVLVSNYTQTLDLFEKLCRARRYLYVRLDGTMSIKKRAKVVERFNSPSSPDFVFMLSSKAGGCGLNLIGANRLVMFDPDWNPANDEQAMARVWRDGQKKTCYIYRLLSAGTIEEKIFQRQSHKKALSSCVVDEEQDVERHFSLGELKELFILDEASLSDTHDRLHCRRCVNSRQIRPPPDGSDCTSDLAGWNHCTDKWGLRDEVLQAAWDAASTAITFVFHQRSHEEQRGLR

[21] = cytotoxicity toward MDA-MB-231 breast cancer cells – cell-based, CellTiter-Glo luminescence, cherry-pick, cytotoxicity control for RAD54 inhibitor project, dose response (AID 651692); type: functional
[22] = target: Ras and Rab interactor 1/Tyrosine-protein kinase ABL1 (Homo sapiens, UniProt P00519+Q13671); type: functional;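 note: biochemical TR-FRET dose-response test measuring inhibition of binding between Rin1 and Abl proteins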
[23] = target: T7, Dual specificity protein phosphatase 3; test: VHR1 phosphatase inhibitors, primary screen, biochemical, absorbance, uHTS (AID 1654)
[24] = HEK-293T viability loss after treatment – luminescence, T-cell screen hits, cytotoxicity control for TCR NF-kB inhibitor project, dose response (AID 489026); type: functional, cell-based;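 note: cells exposed to compound about 14 hours before the viability readout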
[25] = target: Lysine-specific demethylase 4C (Homo sapiens, UniProt Q9H3R0); test: inhibition of JMJD2C H3K9me3 demethylation – biochemical, DELFIA europium, cherry-picked samples, dose response (AID 488835); type: functional
Chain of Lysine-specific demethylase 4C (Q9H3R0 whole entry): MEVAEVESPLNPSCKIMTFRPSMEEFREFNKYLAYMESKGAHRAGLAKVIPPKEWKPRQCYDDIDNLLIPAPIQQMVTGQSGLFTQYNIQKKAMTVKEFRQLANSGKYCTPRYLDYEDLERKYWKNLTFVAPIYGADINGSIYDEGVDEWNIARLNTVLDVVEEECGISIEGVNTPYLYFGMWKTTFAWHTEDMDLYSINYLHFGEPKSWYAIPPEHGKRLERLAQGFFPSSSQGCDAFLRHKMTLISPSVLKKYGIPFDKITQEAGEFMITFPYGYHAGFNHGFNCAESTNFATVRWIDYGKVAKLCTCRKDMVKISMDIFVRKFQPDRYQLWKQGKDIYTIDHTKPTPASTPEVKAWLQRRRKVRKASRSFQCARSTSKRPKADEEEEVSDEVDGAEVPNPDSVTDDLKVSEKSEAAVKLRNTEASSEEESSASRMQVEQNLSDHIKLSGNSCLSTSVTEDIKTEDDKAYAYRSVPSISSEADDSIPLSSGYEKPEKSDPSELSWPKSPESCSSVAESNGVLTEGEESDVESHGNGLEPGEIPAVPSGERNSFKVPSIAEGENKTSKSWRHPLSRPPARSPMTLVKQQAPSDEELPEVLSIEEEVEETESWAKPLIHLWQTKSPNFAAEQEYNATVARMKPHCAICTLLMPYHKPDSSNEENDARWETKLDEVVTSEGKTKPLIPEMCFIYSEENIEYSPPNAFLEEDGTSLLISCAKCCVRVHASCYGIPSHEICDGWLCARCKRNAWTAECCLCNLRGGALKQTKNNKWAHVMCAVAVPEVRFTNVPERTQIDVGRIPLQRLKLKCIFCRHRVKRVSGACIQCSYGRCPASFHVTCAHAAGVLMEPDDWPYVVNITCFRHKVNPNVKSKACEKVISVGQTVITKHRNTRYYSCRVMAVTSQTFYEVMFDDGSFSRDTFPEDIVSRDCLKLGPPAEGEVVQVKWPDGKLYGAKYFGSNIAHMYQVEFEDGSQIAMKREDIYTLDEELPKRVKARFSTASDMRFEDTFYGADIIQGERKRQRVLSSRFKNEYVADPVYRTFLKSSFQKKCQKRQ

INS1 = test: INS-1E survival protection against cytokine death – cell-based, luminescence, retest, dose response (AID 449756); type: functional; details: Rattus norvegicus;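 note: cell death triggered by IL-1 beta plus TNF-alpha plus IFN-gamma mixture; protective hits raise ATP signal compared with cytokine alone wells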
[26] = viability loss of HPDE-C7K cells – cell-based, fluorescence, HTS, primary screen (AID 431); type: functional; details: Homo sapiens

T1 sequence (P09923 whole entry): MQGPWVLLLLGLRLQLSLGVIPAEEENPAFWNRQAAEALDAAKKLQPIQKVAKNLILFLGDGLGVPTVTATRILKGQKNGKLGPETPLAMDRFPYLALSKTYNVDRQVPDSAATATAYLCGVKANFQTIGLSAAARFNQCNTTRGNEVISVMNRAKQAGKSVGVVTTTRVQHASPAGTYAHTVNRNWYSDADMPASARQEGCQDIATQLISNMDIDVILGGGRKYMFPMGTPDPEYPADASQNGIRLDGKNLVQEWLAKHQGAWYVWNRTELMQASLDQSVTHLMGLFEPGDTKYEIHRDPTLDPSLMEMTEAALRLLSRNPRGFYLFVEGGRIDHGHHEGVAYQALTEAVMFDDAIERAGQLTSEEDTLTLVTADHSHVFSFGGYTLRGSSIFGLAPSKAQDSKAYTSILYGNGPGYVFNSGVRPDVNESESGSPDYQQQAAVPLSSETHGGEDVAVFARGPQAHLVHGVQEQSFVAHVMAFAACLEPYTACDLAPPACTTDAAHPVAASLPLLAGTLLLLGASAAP

Cc1cc(C)cc(CC(Cc2nc3ccccc3[nH]2)c2nc3ccccc3[nH]2)c1 (centres undefined)
active: EC50 [1] 55600 nM | EC50 [2] 65700 nM | IC50 [3] 15800 nM | EC50 (Protein RecA) 83000 nM | EC50 [4] 26600 nM | EC50 [5] 69700 nM | AC50 [6] 8310 nM | AC50 [7] 6690 nM

Cn1ncnc2c(=O)n(C)c(=O)nc1-2
active: AC50 [9] 463 nM | EC50 [10] 492 nM | IC50 [11] < 1240 nM | CC50 [12] 10300 nM | EC50 [13] 470 nM | AC50 [14] 2540 nM | IC50 [15] 1360 nM | CC50 [16] 7980 nM | EC50 [18] 850 nM | IC50 [19] 2320 nM | AC50 [20] 1100 nM | AC50 [6] 57 nM | AC50 [21] 1800 nM | IC50 [22] 323 nM | IC50 [24] 2000 nM | AC50 [25] 541 nM | AC50 (INS1) 627 nM | EC50 [26] 640 nM
> 39800 nM (not active): IC50 [8] | IC50 [17]
inactive: IC50 [23] < 980 nM
